Article PMC9404985, “Development of Dicationic Bisguanidine-Arylfuran Derivatives as Potent Agents against Gram-Negative Bacteria” (Antibiotics, 2022)

What was measured:
[1] = test system: Escherichia coli CCUG # 17620; test: MIC of established antibiotics, micro-broth dilution; details: CCUG17620, read-out: MIC Escherichia coli CCUG 17620
[2] = test system: Escherichia coli CCUG # 67180; test: as above; details: CCUG67180, read-out: MIC Escherichia coli CCUG 67180
[3] = test system: Klebsiella pneumoniae CCUG # 225T; test: as above; details: read-out: MIC Klebsiella pneumoniae CCUG 225T
[4] = test system: Klebsiella pneumoniae CCUG # 58547; test: as above; details: CCUG58547, read-out: MIC Klebsiella pneumoniae CCUG 58547
[5] = test system: Pseudomonas aeruginosa CCUG # 17619; test: as above; details: CCUG17619, read-out: MIC Pseudomonas aeruginosa CCUG 17619
[6] = test system: Pseudomonas aeruginosa CCUG # 59347; test: as above; details: CCUG59347, read-out: MIC Pseudomonas aeruginosa CCUG 59347
[7] = test system: Acinetobacter baumannii CCUG # 57250; test: as above; details: CCUG57250, read-out: MIC Acinetobacter baumannii CCUG 57250
[8] = test system: Acinetobacter baumannii CCUG # 57035; test: as above; details: CCUG57035, read-out: MIC Acinetobacter baumannii CCUG 57035
[9] = test system: Enterobacter hormaechei CCUG # 58962; test: as above; details: CCUG58962, read-out: MIC Enterobacter hormaechei CCUG 58962
[10] = Cytotoxicity assay (PrestoBlue) MCF-7; type: cell-based; details: human, MCF-7 cells (breast cancer cell line), 24 h incubation
Protocol: (§1) The cytotoxicity levels of all compounds were evaluated against human Michigan Cancer Foundation-7 (MCF-7) and Hepatoma G2 cell line (HepG2) cell lines. MCF-7 is an extensively characterized breast cancer cell line isolated in 1970 [41], while HepG2 cells were derived from a hepatoma in 1975 [42]. Both cell lines grow robustly during in vitro culture and have been widely used for cytotoxicity testing. Cells of hepatic origin, such as HepG2, are of particular relevance for toxicity studies as many drugs accumulate in the liver during metabolic conversion. Cells were grown in Dulbecco’s Modified Eagle Medium supplemented with 10% fetal calf serum and kept in exponential growth, as previously reported. Before the assay, cells were reseeded into 96-well microtiter plates at a density allowing continued exponential growth and let to settle for 24 h. The compounds were added from a stock solution in DMSO, for a final concentration of 0.3% v/v of the solvent in the culture medium. After 24 h of incubation in presence of the compound, cell viability was assayed using PrestoBlue Cell Viability Reagent (resazurin-based solution, ThermoFisher, Waltham, MA, USA) according to the manufacturer’s instructions. […] Each assay contained a DMSO control at the equivalent starting concentration, positive control (uninhibited cell growth) and negative control (cell medium only). Survival was expressed as percentage of the solvent-only control. […] The Selectivity Index (SI) for each compound and bacterial strain was calculated as the ratio between the mean of the EC50 values for the two human cell lines and the EC50 for the bacterial strain in question ((EC50 MCF-7 + EC50 HepG2)/2)/EC50 bacterial strain).

[11] = Cytotoxicity assay (PrestoBlue) HepG2; type: cell-based; details: human, HepG2 cells (hepatoma cell line), 24 h incubation
Protocol: as §1

[12] = test system: B. subtilis (NBRC/ATCC #111470); test: Antibacterial resazurin assay, laboratory strain; details: for EC50 / EC90: Bacillus subtilis, ATCC111470, 18 h; for EC50: read-out: Bsu EC50; for EC90: read-out: Bsu EC90; for Selectivity index B. subtilis: mean of MCF-7 and HepG2 EC50 over bacterial EC50, laboratory strain
[13] = test system: E. coli MG1655 (CGSC #6300); test: Antibacterial resazurin assay, laboratory strain; details: for EC50 / EC90: Escherichia coli, MG1655, 18 h; for EC50: read-out: Eco EC50; for EC90: read-out: Eco EC90; for Selectivity index E. coli: mean of MCF-7 and HepG2 EC50 over bacterial EC50, laboratory strain
[14] = test system: P. putida (NBRC/ATCC #100650); test: Antibacterial resazurin assay, laboratory strain; details: for EC50 / EC90: Pseudomonas putida, ATCC100650, 18 h; for EC50: read-out: Ppu EC50, laboratory strain, 18 h, 37 °C, AlamarBlue; for EC90: read-out: Ppu EC90; for Selectivity index P. putida: mean of MCF-7 and HepG2 EC50 over bacterial EC50, laboratory strain
[15] = test system: P. carotovorum (NBRC/ATCC #3380); test: Antibacterial resazurin assay, laboratory strain; details: for EC50 / EC90: Pectobacterium carotovorum, ATCC3380, 18 h; for EC50: read-out: Pcar EC50, laboratory strain, 18 h, 37 °C, AlamarBlue; for EC90: read-out: Pcar EC90; for Selectivity index P. carotovorum: mean of MCF-7 and HepG2 EC50 over bacterial EC50, laboratory strain
[16] = test system: P. caledonica (NBRC/ATCC #102488); test: Antibacterial resazurin assay, laboratory strain; details: for EC50 / EC90: Paraburkholderia caledonica, ATCC102488, 18 h; for EC50: read-out: Pcal EC50; for EC90: read-out: Pcal EC90; for Selectivity index P. caledonica: mean of MCF-7 and HepG2 EC50 over bacterial EC50, laboratory strain

| Structure (SMILES) | EC50 at 24 h [10] [µM] | EC50 at 24 h [11] [µM] | EC50 [12] [µM] | EC90 [12] [µM] | EC50 [13] [µM] | EC90 [13] [µM] | Selectivity index E. coli [13] | EC50 [14] [µM] | EC90 [14] [µM] | Selectivity index P. putida [14] | EC50 [15] [µM] | EC90 [15] [µM] | Selectivity index P. carotovorum [15] | EC50 [16] [µM] | EC90 [16] [µM] | Selectivity index B. subtilis [12] | Selectivity index P. caledonica [16] | other results |
| --- | --- | --- | --- | --- | --- | --- | --- | --- | --- | --- | --- | --- | --- | --- | --- | --- | --- | --- |
| O=C(O)c1cn(C2CC2)c2cc(N3CCNCC3)c(F)cc2c1=O [Ciprofloxacin] | – | – | – | – | – | – | – | – | – | – | – | – | – | – | – | – | – | MIC [1]: 0.025 µM; MIC [2]: 190 µM; MIC [3]: 0.18 µM; MIC [4]: 190 µM; MIC [5]: 1.5 to 3 µM; MIC [6]: 100 µM; MIC [7]: 200 µM; MIC [8]: 200 µM; MIC [9]: 0.1 µM |
| N=C(N)Nc1ccc(-c2ccc(-c3ccc(NC(=N)N)cc3C(F)(F)F)o2)c(C(F)(F)F)c1 [Compound 5, 2,5-Bis(4-guanidino-2-trifluoromethylphenyl)furan] | 23.2 | 69 | > 300 | > 300 | 29.4 | 59.1 | 1.6 | 290 | 319 | 0.2 | 185 | 233 | 0.2 | > 300 | > 300 | – | – | – |
| N#Cc1cc(NC(=N)N)ccc1-c1ccc(-c2ccc(NC(=N)N)cc2C#N)o1 [Compound 7, 2,5-Bis(2-cyano-4-guanidinophenyl)furan] | 46 | 78.9 | 146 | 562 | 59.3 | 350 | 1.1 | 24.5 | 51.5 | 2.5 | 212 | 268 | 0.3 | > 300 | > 300 | 0.4 | – | – |
| Cc1nc(NC(=N)N)ccc1-c1ccc(-c2ccc(NC(=N)N)nc2C)o1 [Compound 9, 2,5-Bis(6-guanidino-2-methylpyridin-3-yl)furan] | > 1000 | > 100 | 154 | 246 | 547 | > 900 | 1.0 | > 300 | > 300 | – | > 300 | > 300 | – | 84.8 | 213 | 3.6 | 6.5 | – |
| Nc1c(Nc2ccc(-c3ccc(-c4ccc(Nc5c(N)c(=O)c5=O)cc4Cl)o3)c(Cl)c2)c(=O)c1=O [Compound 11, 2,5-Bis(2-chloro-4-((3,4-dioxo-2-(amino)cyclobut-1-en-1-yl)amino)phenyl)furan] | 508 | 183 | > 300 | > 300 | > 300 | > 300 | – | > 300 | > 300 | – | > 300 | > 300 | – | 19 | 60.1 | – | 18.2 | – |
| Nc1c(Nc2ccc(-c3ccc(-c4ccc(Nc5c(N)c(=O)c5=O)cc4)o3)cc2)c(=O)c1=O [Compound 12, 2,5-Bis(4-((3,4-dioxo-2-(amino)cyclobut-1-en-1-yl)amino)phenyl)furan] | > 1000 | > 1000 | > 300 | > 300 | > 300 | > 300 | – | > 300 | > 300 | – | > 300 | > 300 | – | > 300 | > 300 | – | – | – |
| Cc1cc(Nc2c(N)c(=O)c2=O)ccc1-c1ccc(-c2ccc(Nc3c(N)c(=O)c3=O)cc2C)o1 [Compound 13, 2,5-Bis(2-methyl-4-((3,4-dioxo-2-(amino)cyclobut-1-en-1-yl)amino)phenyl)furan] | > 1000 | 137 | > 300 | > 300 | > 300 | > 300 | – | > 300 | > 300 | – | > 300 | > 300 | – | > 300 | > 300 | – | – | – |
| Nc1c(Nc2ccc(-c3ccc(-c4ccc(Nc5c(N)c(=O)c5=O)cc4C(F)(F)F)o3)c(C(F)(F)F)c2)c(=O)c1=O [Compound 14, 2,5-Bis(2-trifluoromethyl-4-((3,4-dioxo-2-(amino)cyclobut-1-en-1-yl)amino)phenyl)furan] | 173 | 185 | > 300 | > 300 | > 300 | > 300 | – | > 300 | > 300 | – | > 300 | > 300 | – | 90.4 | 305 | – | 2.0 | – |
| N=C(N)Nc1ccc2c(c1)CCN2C(=O)c1ccc(-c2ccc(NC(=N)N)cc2C(F)(F)F)o1 [Compound 18, (5-(2-trifluoromethy-4-guanidinophenyl)furan-2-yl)(5-guanidinoindolin-1-yl)methanone] | 123 | 508 | 9.6 | 13.6 | 42.3 | 58.3 | 7.5 | 10.1 | 22.2 | 31.3 | 94.6 | 120 | 3.3 | 12.6 | 176 | 32.9 | 25.1 | – |
| N=C(N)Nc1ccc2c(c1)CCN2C(=O)c1ccc(-c2ccccc2Cl)o1 [Compound 19, (5-(2-chlorophenyl)furan-2-yl)(5-guanidinoindolin-1-yl)methanone] | 26.4 | 24.8 | 14.5 | 25.9 | 0.5 | 2.5 | 51.2 | 75 | 84.9 | 0.3 | 87.1 | 130 | 0.3 | 96.3 | 287 | 1.8 | 0.3 | – |
| N=C(N)Nc1ccc(-c2ccc(C(=O)N3CCc4ccccc43)o2)c(Cl)c1 [Compound 20, (5-(2-chloro-4-guanidinophenyl)furan-2-yl)(indolin-1-yl)methanone] | 37.8 | 28.5 | 24.5 | 38.4 | 61.7 | 106 | 0.5 | > 300 | > 300 | – | 159 | 187 | 0.2 | 129 | > 300 | 1.4 | 0.3 | – |
